“Also recorded” adds a separate entry of the source.
How the values were obtained:
[1] = system: rat mesangial cells in culture; assay: Prevention of hydrogen peroxide induced contraction of mesangial cells (CSA); format: cell-based, Wistar rats; conditions: for effect on hydrogen peroxide induced reduction in CSA: preincubation 10 minutes before hydrogen peroxide 10^-4 M; for change in CSA compared with the control: somatostatin alone
Method: (§1) The mesangial cells were obtained after glomeruli isolation by differential sieving (R. P. Misra. Am. J. Clin. Pathol 1972 58 135-139) and collagenase digestion of kidney tissue from Wistar rats. The cell surface area (CSA) was measured using a digital planimeter.
(§2) Microphotographs were taken at different times and the CSA measured. Each experiment was repeated three times and a total of 8-15 cells were measured for each part of each experiment. The results are expressed as a percentage increase or decrease over the initial CSA, […].

[2] = system: rat mesangial cells in culture; assay: Reversal of hydrogen peroxide induced contraction of mesangial cells (CSA); format: cell-based, Wistar rats; conditions: for effect on CSA of untreated cells: somatostatin alone
Method: as §1, §2

[3] = somatostatin infusions of 250 to 375 microgrammes; cited from earlier work
[4] = in vivo; cited from earlier work
guanylate cyclase = conditions: some cell types; cited from earlier work
[5] = system: rat mesangial cells in culture; assay: Prevention of angiotensin II induced contraction of mesangial cells (cell surface area, CSA); format: cell-based, Wistar rats; conditions: for effect on contractile effect of angiotensin (CSA): preincubation 10 minutes before angiotensin II 10^-8 M
Method: as §1
In experiments concerned with the ability of somatostatin to prevent contraction, the mesangial cells were incubated with somatostatin for ten minutes at a concentration of 10^-6 M or 10^-8 M before the addition of angiotensin II (10^-8 M) or hydrogen peroxide (10^-4 M).
(§3) In all these experiments, control cells lacked the addition of somatostatin, angiotensin II or hydrogen peroxide to the buffer.
as §2

[6] = system: rat mesangial cells in culture; assay: Reversal of angiotensin II induced contraction of mesangial cells (CSA); format: cell-based, Wistar rats; conditions: FIG. 3
Method: as §1
In experiments concerned with the ability of somatostatin to revese contraction, the mesangial cells were incubated for 30 minutes with either angiotensin II or hydrogen peroxide (at the concentrations mentioned above) before somatostatin at a concentration of 10^-6 M or 10^-8 M was added to the cells.
as §3, §2

## OO [hydrogen peroxide]
[1]; hydrogen peroxide 10^-4 M alone
  effect on CSA: significant reduction in CSA
[2]; hydrogen peroxide 10^-4 M alone, t=0 to t=60 minutes, FIGS. 7, 8, 10
  contraction of cells treated with only hydrogen peroxide: remained in a contracted state; also recorded: contracted to a significant degree

## C[C@H](N)C(=O)NCC(=O)N[C@H]1CSSC[C@@H](C(=O)O)NC(=O)[C@H](CO)NC(=O)[C@H]([C@@H](C)O)NC(=O)[C@H](Cc2ccccc2)NC(=O)[C@H]([C@@H](C)O)NC(=O)[C@H](CCCCN)NC(=O)[C@H](Cc2c[nH]c3ccccc23)NC(=O)[C@H](Cc2ccccc2)NC(=O)[C@H](Cc2ccccc2)NC(=O)[C@H](CC(N)=O)NC(=O)[C@H](CCCCN)NC1=O [somatostatin, Somatostatin]
[3]
  reduction in heart rate: about 10 beats per minute
[4]
  urinary calcium excretion: reduces
Guanylate cyclase
  intracellular cGMP concentrations: increase intracellular cGMP concentrations
[5]; cells pre-treated with somatostatin before addition of angiotensin II, FIG. 12
  cell size in microphotographs: substantially no change in the size of these cells
[5]; somatostatin 10^-6 M, FIG. 1
  effect on contractile effect of angiotensin (CSA): completely preventing the contractile effect of angiotensin II; also recorded: completely inhibited the contractile effect of angiotensin
[5]; somatostatin 10^-8 M, FIG. 2
  effect on contractile effect of angiotensin (CSA): the same effect occurs
[5]; somatostatin alone, 10^-6 M, FIG. 1
  effect in isolation on CSA: no significant effect
[6]; somatostatin alone, 10^-6 M
  change in CSA, incubated in isolation: did not observe any significant change in CSA
[1]; somatostatin 10^-6 M, FIG. 5
  effect on hydrogen peroxide induced reduction in CSA: equally effective in preventing the contractile effect; also recorded: prevented
[1]; somatostatin 10^-8 M, FIG. 6
  effect on hydrogen peroxide induced reduction in CSA: prevented
[1]; 10^-6 M, FIG. 5
  change in CSA compared with the control: did not in itself induce any significant change in CSA
[1]; 10^-8 M, FIG. 6
  change in CSA compared with the control: did not in itself induce any significant change in CSA
[2]; hydrogen peroxide at t=0, somatostatin added at t=30 minutes, read at t=60 minutes, FIG. 11
  cell size in microphotographs: relax to almost their original size
[2]; somatostatin 10^-6 M added 30 minutes after hydrogen peroxide 10^-4 M, read after a further 30 minutes, FIG. 7
  reversal of contractile effect of hydrogen peroxide (CSA): reverses contraction; also recorded: CSA returns to normal
[2]; somatostatin 10^-8 M added 30 minutes after hydrogen peroxide 10^-4 M, FIG. 8
  reversal of contractile effect of hydrogen peroxide (CSA): The same effect was demonstrated
[2]; 10^-6 M, FIG. 7
  effect on CSA of untreated cells: did not significantly effect CSA
[2]; 10^-8 M, FIG. 8
  effect on CSA of untreated cells: did not significantly effect CSA

## angiotensin II [contractile stimulus added to mesangial cells at 10^-8 M]
[5]; angiotensin II 10^-8 M alone, after 30 minutes incubation
  effect on CSA: significantly reducing the CSA
[6]; angiotensin II 10^-8 M alone
  persistence of induced contraction: persisted for 60 minutes

From patent US5491131A, “Somatostatin-active polypeptide composition” (Applied Research Systems ARS Holding NV, priority 1989, dated 1996)
